Reference: patent publication US20260091086A1, “POLYPEPTIDE COMBINATIONS AND USES THEREOF” (MEDIMMUNE LIMITED, priority 2024, published 2026)
Numbered stars: 1 amine (or outer) side, 2 acyl side, 3 side chain; on linkers, the order of the positions; unused ones are H or OH. Bridge positions count the residues as written; N and C are the ends. Square brackets hold non-standard residues; d marks the D form. Side chains are listed from the residue outwards. Ends that are not written are not given here. * marks the point of attachment. C18 diacid = O=C(O)CCCCCCCCCCCCCCCCC(=O)*; γGlu = O=C(O)[C@H](CCC(=O)[*:2])N[*:1]; αMeF = C[C@](N)(Cc1ccccc1)C(=O)O

Experiments:
[1] = tested on: chow fed lean rats; assay: Example 3: acute gastric emptying by X-ray fluoroscopic quantification; format: in vivo, rat; settings: acute SC
Procedure: (§1) Study design: DIO male pair-housed rats fed a 32.5% high-fat diet (D12266B) for 7 weeks reached a mean body weight (BW) of ˜595 g. Rats were dosed SC daily for 28 days with vehicle (Vh), GLP-1/GCG dual agonist (1.5 or 5 nmol/kg), LAA (2.5 or 7.5 nmol/kg), or combination (1.5+2.5 nmol/kg, 1.5+7.5 nmol/kg, 5+2.5 nmol/kg, or 5+7.5 nmol/kg, respectively). Food intake (FI) and BW were measured daily. In chow fed lean rats, gastric emptying (GE) was measured via X-ray fluoroscopic quantification following SC injections of Vh, GLP-1/GCG dual agonist at 1, 3, or 10 nmol/kg or LAA at 1, 3, or 10 nmol/kg. In a subsequent acute GE study, lean rats received a single dose of Vh, GLP-1/GCG dual agonist (2 nmol/kg), LAA (2 nmol/kg) or GLP-1/GCG dual agonist+LAA combination (2+2 nmol/kg). In this experiment, the LAA was that of SEQ ID NO: 11, and the GLP-1/GCG dual-agonist was cotadutide.

[2] = tested on: DIO rat; assay: Example 3: repeat dose DIO rat gastric emptying study; format: in vivo; settings: 2 nmol/kg monotherapy, beyond 7 days of treatment
Description: Study Design: […] X-ray fluoroscopic quantification was used to assess gastric emptying. In this experiment, the LAA was that of SEQ ID NO: 11, and the GLP-1R agonist was semaglutide.

[3] = tested on: diet-induced obese (DIO) Sprague-Dawley rats; assay: Example 2: 28-day combination study in DIO rats (body weight, EchoMRI body composition); format: in vivo, rat; settings: LAA 10 nmol/kg, GLP-1/GCG 5.4 nmol/kg or both
Procedure: Study Design: Male diet-induced obese (DIO) Sprague-Dawley rats were fed a high fat diet (45% fat, D12451; Research Diets) for 34 weeks prior to study start. […] Research Diets). […] Average body weight for all DIO rats at start of study was 722.4+10.1 grams. Body composition was measured by EchoMRI on day-7 and day 26. In this experiment, the LAA was that of SEQ ID NO: 11, and the GLP-1/GCG dual-agonist was cotadutide. Data reported as mean±standard error of the mean (SEM); data analysis performed using GraphPad Prism-statistical analysis performed using One-way ANOVA with Tukey ad hoc analysis.

[4] = tested on: Wistar Han rats; assay: Example 4: 3-month subcutaneous study, body weight; format: in vivo, rat; settings: for Body Weight Comparison, Day 92 vs. Control Group 1 Day 92 / Body Weight Gain (Day 92 vs Day −1) / Mean Body Weight at Day 92: dose levels 2000/0, Group 4
Procedure: Study Design: Male (9-11 weeks of age) and female (10-11 weeks of age) Wistar Han rats were SC administered with Vehicle/Vehicle (group 1—for LAA of SEQ ID NO: 11 and GLP-1/GCG of SEQ ID NO: 35), LAA of SEQ ID NO: 11 and GLP-1/GCG of SEQ ID NO: 35 (group 2—500 and 5 μg/kg respectively), LAA of SEQ ID NO: 11 and GLP-1/GCG of SEQ ID NO: 35 (group 3—2000 and 5 μg/kg respectively), SEQ ID NO: 11 and Vehicle for SEQ ID NO: 35 (group 4—2000 μg/kg and 0 μg/kg respectively), or Vehicle for SEQ ID NO: 11 and SEQ ID NO: 35 (group 5—0 and 5 μg/kg respectively) daily for 91 days. Dosing for LAA of SEQ ID NO: 11 was dose escalated with group 2 receiving 250 μg/kg from day 1-5 and 500 μg/kg for duration of study, and groups 3 and 4 receiving 250 μg/kg SEQ ID NO: 11 from day 1-5, 500 μg/kg SEQ ID NO: 11 from days 7-13 and 2000 μg/kg for duration of study. There was a n=10/group per gender.

[5] = tested on: High-fat diet (DIO) fed rats; assay: Example 9: 4-week LAA or DACRA monotherapy in DIO rats; format: in vivo, rat; settings: for BW reduction compared to vehicle / reduction of cumulative food intake: 4 weeks
Description: Study 1 Design: High-fat diet (DIO) fed rats were used to profile LAA or DACRA monotherapy to evaluate food intake, body weight-lowering and body composition effects in a 4-week study. In this experiment, the LAA was that of SEQ ID NO: 11 and the DACRA was cagrilintide.

[6] = tested on: DIO male pair-housed rats; assay: Example 3 additional study: 28-day body weight, food intake and organ weights in DIO rats; format: in vivo, rat; settings: 28 days SC daily
Procedure: as §1

[7] = tested on: DIO Sprague-Dawley rats; assay: Example 3: 28-day body weight study in DIO rats; format: in vivo, rat; settings: day 28; LAA 7.5 nmol/kg SC QD
Procedure: Study Design: Male DIO Sprague-Dawley rats were fed a high-fat diet (32.5% kcal fat, D12266B; Research Diets) for approximately 8 weeks prior to study start. Rats were dosed once daily SC for 28 days with Vehicle, GLP-1/GCG (1.5 nmol/kg or 5 nmol/kg), LAA (7.5 nmol/kg) or a combination of GLP-1/GCG and LAA (1.5 and 7.5 nmol/kg, or 5 nmol/kg and 7.5 nmol/kg, respectively) with an n=6/group. Body weight was monitored daily throughout the study. Data reported as mean±standard error of the mean (SEM); data analysis performed using GraphPad Prism-statistical analysis performed using One-way ANOVA with Tukey ad hoc analysis (*p<0.05, **p<0.01, ***0<0.001, ****p<0.0001). In this experiment, the LAA was that of SEQ ID NO: 11, and the GLP-1/GCG dual-agonist was cotadutide.

For “K(γE-γE-C18diacid)[CNTATC]ATQRLANFLRHSSNN(αMePhe)GPILPPTEVGSNTY-amide (K([γGlu-γGlu-C18 diacid])CNTATCATQRLANFLRHSSNN[αMeF]GPILPPTEVGSNTY-NH2; disulfide 2-7) [LAA]”, the “GE AUC as % of Vehicle” value ([1]; 1 nmol/kg) was 101%, the “GE AUC as % of Vehicle” value ([1]; 3 nmol/kg) was 34% and the “GE AUC as % of Vehicle” value ([1]; 10 nmol/kg) was 8%. For the same substance, the “GE delay on repeat dosing” value [2] was “maintained GE delay beyond 7 days of treatment”, the “body weight loss vs Vehicle” value ([3]; SC QD, FIG. 1A) was “lost significantly more body weight than Vehicle treated rats” and the “fat mass change (EchoMRI)” value ([3]; day 26) was “lost a significant amount of fat mass compared to Vehicle treatment”. The “lean mass change (EchoMRI)” value ([3]; day 26) was “little effect on lean mass”, the “Body weight at study day 92 vs Vehicle” value ([4]; both male and female, groups 2-5) was “significantly lower” and the “Body Weight Comparison, Day 92 vs. Control Group 1 Day 92” value ([4]; female) was 89%. The “Body Weight Gain (Day 92 vs Day −1)” value ([4]; female) was 110%, the “Mean Body Weight at Day 92” value ([4]; female) was 222.1 grams and the “Body Weight Comparison, Day 92 vs. Control Group 1 Day 92” value ([4]; male) was 79%. For the same substance, the “Body Weight Gain (Day 92 vs Day −1)” value ([4]; male) was 119%, the “Mean Body Weight at Day 92” value ([4]; male) was 319.2 grams and the “BW reduction compared to vehicle” value ([5]; 2.5 nmol/kg) was −5.2±0.6%. For the same substance, the “reduction of cumulative food intake” value ([5]; 2.5 nmol/kg) was −14.3±1.2 % of vehicle, the “BW reduction compared to vehicle” value ([5]; 10 nmol/kg) was −9.7±0.7% and the “reduction of cumulative food intake” value ([5]; 10 nmol/kg) was −20.9±0.7 % of vehicle. For the same substance, the fat-mass loss ([5]; end of study, 10 nmol/kg) was -28.0 ± 2.3 g, the “proportion of body weight loss that was fat-mass specific” value ([5]; end of study, 10 nmol/kg, FIG. 8C) was 100% and the lean mass ([5]; end of study, FIG. 8B) was “Lean mass was preserved in the LAA groups”. The “Vh corrected BW change (BW gain)” value ([6]; LAA 2.5 nmol/kg) was −9.4%, the “Vh corrected BW change (BW gain)” value ([6]; LAA 7.5 nmol/kg) was −13.7% and the “Cumulative FI normalized to Vh” value ([6]; monotherapy and combination groups) was “decreased in a dose-dependent manner”. For the same substance, the “mean change in body weight normalized to Vehicle” value [7] was −13.7%.
